Measured values as given in PubChem BioAssay AID1963450 (Molecular Pharmacology Branch, DTP, NCI, 2024).
Each block holds one molecule with its values, some of them ahead of it.

Tested on: 556581-035-R-J1-PDC complex spheroid growth
Test: Anticancer human tumor 556581-035-R-J1-PDC patient-derived ovarian carcinoma cell line growth inhibition [Asc]
Settings: for IC50: curve of first compound; for viability, T/C: stronger effect = lower value
In short: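 Tumor cells were grown as multicellular spheroids with stromal HUVEC and mesenchymal stem cells and treated singly or in combination. Concentrations fell in half-log steps from the clinical Cmax, or from 10 microM where none was known.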

[1] = second compound 0.1 µM, first compound 0.0316 µM
[2] = second compound 0.1 µM, first compound 0.1 µM
[3] = second compound 0.1 µM, first compound 0.316 µM
[4] = second compound 0.1 µM, first compound 1 µM
[5] = second compound 0.316 µM, first compound 0.0316 µM
[6] = second compound 0.316 µM, first compound 0.1 µM
[7] = second compound 0.316 µM, first compound 0.316 µM
[8] = second compound 0.316 µM, first compound 1 µM
[9] = second compound 1 µM, first compound 0.0316 µM
[10] = second compound 1 µM, first compound 0.1 µM
[11] = second compound 1 µM, first compound 0.316 µM
[12] = second compound 1 µM, first compound 1 µM
[13] = second compound 3.16 µM, first compound 0.0316 µM
[14] = second compound 3.16 µM, first compound 0.1 µM
[15] = second compound 3.16 µM, first compound 0.316 µM
[16] = second compound 3.16 µM, first compound 1 µM
[17] = second compound 10 µM, first compound 0.0316 µM
[18] = second compound 10 µM, first compound 0.1 µM
[19] = second compound 10 µM, first compound 0.316 µM
[20] = second compound 10 µM, first compound 1 µM
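Further: spheroids exposed to agents for 7 days before viability read.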

IC50 (second compound 0.1 µM): > 10000 nM | IC50 (second compound 0.316 µM): > 10000 nM | IC50 (second compound 1 µM): 7570 nM | IC50 (second compound 3.16 µM): 8820 nM | IC50 (second compound 10 µM): 1210 nM
SMILES: C#Cc1c(F)ccc2cc(O)cc(-c3ncc4c(N5CC6CCC(C5)N6)nc(OCC56CCCN5CC(F)C6)nc4c3F)c12 (stereo not given) + Cc1c(S(C)(=O)=O)c(-c2cc(F)cc(N3CCN(c4ccc(NS(=O)(=O)c5ccc(NC(CCN6CCC(C(=O)OCCCP(=O)(O)O)CC6)CSc6ccccc6)c(S(=O)(=O)C(F)(F)F)c5)cc4)CC3)c2)c(-c2ccc(Cl)cc2)n1C(C)C
viability, T/C [1]: 82% | viability, T/C [2]: 83.8% | viability, T/C [3]: 63.6% | viability, T/C [4]: 64.5% | viability, T/C (second compound 0.1 µM, first compound 3.16 µM): 79.7% | viability, T/C (second compound 0.1 µM, first compound 10 µM): 71.9% | viability, T/C [5]: 55% | viability, T/C [6]: 79.5% | viability, T/C [7]: 81.9% | viability, T/C [8]: 70.1% | viability, T/C (second compound 0.316 µM, first compound 3.16 µM): 63.6% | viability, T/C (second compound 0.316 µM, first compound 10 µM): 63.5% | viability, T/C [9]: 73.3% | viability, T/C [10]: 65.3% | viability, T/C [11]: 63.8% | viability, T/C [12]: 65.1% | viability, T/C (second compound 1 µM, first compound 3.16 µM): 59.2% | viability, T/C (second compound 1 µM, first compound 10 µM): 46.9% | viability, T/C [13]: 51.7% | viability, T/C [14]: 68.3% | viability, T/C [15]: 67.3% | viability, T/C [16]: 60.7% | viability, T/C (second compound 3.16 µM, first compound 3.16 µM): 57.8% | viability, T/C (second compound 3.16 µM, first compound 10 µM): 49.1% | viability, T/C [17]: 64.8% | viability, T/C [18]: 58.2% | viability, T/C [19]: 59.9% | viability, T/C [20]: 47% | viability, T/C (second compound 10 µM, first compound 3.16 µM): 47.3% | viability, T/C (second compound 10 µM, first compound 10 µM): 39.6%

IC50 (second compound 0.1 µM): 87.3 nM | IC50 (second compound 0.316 µM): 73.8 nM | IC50 (second compound 1 µM): 49.9 nM | IC50 (second compound 3.16 µM): 6.27 nM | IC50 (second compound 10 µM): < 3.16 nM
SMILES: CNC(C)C(=O)NC1CN(S(=O)(=O)c2cccc(S(=O)(=O)N3CCC4CCC(C(=O)NC(c5ccccc5)c5ccccc5)N4C(=O)C(NC(=O)C(C)NC)C3)c2)CCC2CCC(C(=O)NC(c3ccccc3)c3ccccc3)N2C1=O (stereo not given) + Cc1c(S(C)(=O)=O)c(-c2cc(F)cc(N3CCN(c4ccc(NS(=O)(=O)c5ccc(NC(CCN6CCC(C(=O)OCCCP(=O)(O)O)CC6)CSc6ccccc6)c(S(=O)(=O)C(F)(F)F)c5)cc4)CC3)c2)c(-c2ccc(Cl)cc2)n1C(C)C
viability, T/C (second compound 0.1 µM, first compound 0.00316 µM): 68.6% | viability, T/C (second compound 0.1 µM, first compound 0.01 µM): 69.5% | viability, T/C [1]: 60% | viability, T/C [2]: 48% | viability, T/C [3]: 49.1% | viability, T/C [4]: 41.1% | viability, T/C (second compound 0.316 µM, first compound 0.00316 µM): 60.2% | viability, T/C (second compound 0.316 µM, first compound 0.01 µM): 73.3% | viability, T/C [5]: 68.4% | viability, T/C [6]: 43.7% | viability, T/C [7]: 41% | viability, T/C [8]: 26% | viability, T/C (second compound 1 µM, first compound 0.00316 µM): 61.8% | viability, T/C (second compound 1 µM, first compound 0.01 µM): 53.2% | viability, T/C [9]: 67.3% | viability, T/C [10]: 33.5% | viability, T/C [11]: 28.6% | viability, T/C [12]: 26.8% | viability, T/C (second compound 3.16 µM, first compound 0.00316 µM): 49.7% | viability, T/C (second compound 3.16 µM, first compound 0.01 µM): 54% | viability, T/C [13]: 34.7% | viability, T/C [14]: 35.5% | viability, T/C [15]: 24.5% | viability, T/C [16]: 24.5% | viability, T/C (second compound 10 µM, first compound 0.00316 µM): 49.4% | viability, T/C (second compound 10 µM, first compound 0.01 µM): 35.1% | viability, T/C [17]: 42.4% | viability, T/C [18]: 33.6% | viability, T/C [19]: 27.8% | viability, T/C [20]: 30.7%

IC50 (second compound 0.1 µM): 544 nM | IC50 (second compound 0.316 µM): 389 nM | IC50 (second compound 1 µM): 266 nM | IC50 (second compound 3.16 µM): 97 nM | IC50 (second compound 10 µM): 14.1 nM
SMILES: Cc1nc(N2CCC3(CC2)COC(C)C3N)c(CO)nc1Sc1ccnc(N)c1Cl (stereo not given) + Cc1c(S(C)(=O)=O)c(-c2cc(F)cc(N3CCN(c4ccc(NS(=O)(=O)c5ccc(NC(CCN6CCC(C(=O)OCCCP(=O)(O)O)CC6)CSc6ccccc6)c(S(=O)(=O)C(F)(F)F)c5)cc4)CC3)c2)c(-c2ccc(Cl)cc2)n1C(C)C
viability, T/C (second compound 0.1 µM, first compound 0.00949 µM): 81.7% | viability, T/C (second compound 0.1 µM, first compound 0.03 µM): 90.2% | viability, T/C (second compound 0.1 µM, first compound 0.0949 µM): 62.4% | viability, T/C (second compound 0.1 µM, first compound 0.3 µM): 57.5% | viability, T/C (second compound 0.1 µM, first compound 0.949 µM): 47% | viability, T/C (second compound 0.1 µM, first compound 3 µM): 36.2% | viability, T/C (second compound 0.316 µM, first compound 0.00949 µM): 72.5% | viability, T/C (second compound 0.316 µM, first compound 0.03 µM): 64.4% | viability, T/C (second compound 0.316 µM, first compound 0.0949 µM): 54.9% | viability, T/C (second compound 0.316 µM, first compound 0.3 µM): 53.8% | viability, T/C (second compound 0.316 µM, first compound 0.949 µM): 47.6% | viability, T/C (second compound 0.316 µM, first compound 3 µM): 32.8% | viability, T/C (second compound 1 µM, first compound 0.00949 µM): 62% | viability, T/C (second compound 1 µM, first compound 0.03 µM): 63.8% | viability, T/C (second compound 1 µM, first compound 0.0949 µM): 59.5% | viability, T/C (second compound 1 µM, first compound 0.3 µM): 49.1% | viability, T/C (second compound 1 µM, first compound 0.949 µM): 31.2% | viability, T/C (second compound 1 µM, first compound 3 µM): 30.6% | viability, T/C (second compound 3.16 µM, first compound 0.00949 µM): 55.5% | viability, T/C (second compound 3.16 µM, first compound 0.03 µM): 60.5% | viability, T/C (second compound 3.16 µM, first compound 0.0949 µM): 50.3% | viability, T/C (second compound 3.16 µM, first compound 0.3 µM): 35.7% | viability, T/C (second compound 3.16 µM, first compound 0.949 µM): 39.9% | viability, T/C (second compound 3.16 µM, first compound 3 µM): 29.8% | viability, T/C (second compound 10 µM, first compound 0.00949 µM): 50.8% | viability, T/C (second compound 10 µM, first compound 0.03 µM): 48.7% | viability, T/C (second compound 10 µM, first compound 0.0949 µM): 43.7% | viability, T/C (second compound 10 µM, first compound 0.3 µM): 30.7% | viability, T/C (second compound 10 µM, first compound 0.949 µM): 37.4% | viability, T/C (second compound 10 µM, first compound 3 µM): 22.3%
